{"source": "patent US6956113B2", "about": "(priority 2000, dated 2005)", "test_system": "bioluminescent Salmonella tester strains (his- cells)", "data": [{"compound": "[N-]=[N+]=[N-]", "note": "[NaN, sodium azide]", "values": [{"measurement": "bioluminescent revertants after independent exposure (mutagenicity)", "result": "detection of bioluminescent revertants"}]}]}
